Measurements from patent US9458479B2, “Method for late introduction of the (8R) hydroxyl group carbapenem β-lactam antibiotic synthesis” (THE JOHNS HOPKINS UNIVERSITY, priority 2009, dated 2016).

How the values were obtained:
[1] = test system: ThnG; experiment: In vitro reaction of carbapenam/ems with purified ThnG, HPLC and ESI-MS analysis of products; assay type: biochemical, Streptomyces cattleya; conditions: 1 mM substrate, 0.2 mg/mL ThnG, 25 mM MOPS pH 7.0, ferrous ammonium sulfate, α-KG, ascorbate, room temperature 1 h
Description: (§1) Thienamycin biosynthetic cluster genes thnG and thnQ were cloned from genomic DNA and inserted into pET29b each bearing a C-terminal His6-tag. The recombinant proteins were overproduced in E. coli Rosetta2(DE3) and purified by Ni-NTA affinity chromatography. In vitro reactions in MOPS, pH 7.0, containing Fe(NH4)2(SO4)2, α-KG, ascorbate, the subject carbapenam/em, and either ThnG or ThnQ were incubated and analyzed by HPLC for the formation of new product(s). Salowe, S. P., et al., Biochemistry 29(27):6499-6508 (1990); Decristoforo, G. Anal. Chim. Acta 163(SEP):25-33 (1984). […] The products were immediately identifiable as carbapenems by their unique chromophores (λmax=290-320 nm). ThnQ produced a single new product more polar than 5, while ThnG produced two products, one with a shorter retention time and one with a longer retention time than that of 5.
For routine HPLC analysis, reactions were assembled containing 25 mM MOPS, pH 7.0, 1 mM ascorbate, 0.08 mM ferrous ammonium sulfate, 8 mM α-ketoglutarate (α-KG), 1 mM of the substrate and 0.2 mg/mL ThnG or ThnQ. Salowe, S. P., et al., Biochemistry 29(27):6499-6508 (1990). After addition of the protein, the reactions were incubated at room temperature for 1 h. The protein was then removed with an Amicon Ultra 10,000 MWCO filter. For ESI mass spectroscopic analysis of HPLC purified enzymatic products, reactions were assembled under similar conditions except containing 2 mM substrate, 2 mM ascorbate and 0.6 mg/mL ThnG or ThnQ.
(§2) HPLC conditions: Phenomenex Luna 5 μC18(2) analytical column; Method 1, A=50 mM ammonium formate pH 8.5, B=MeOH, t=0 min 0% B, t=10 min 35% B, t=13 min 35% B, t=15 min 0% B, t=20 min 0% B. Method 2, A=50 mM ammonium formate pH 8.5, B=MeOH, t=0 min 0% B, t=10 min 33% B, t=18 min 33% B, t=20 min 0% B, t=25 min 0% B. λ=300 nm (carbapenem) or 220 nm (carbapenam). Decristoforo, G., Anal. Chim. Acta 163:25-33 (1984). Purified carbapenems were collected from the HPLC and analyzed directly by ESI mass spectrometry in the negative ion mode.

[2] = test system: ThnQ; experiment: In vitro reaction of carbapenam/ems with purified ThnQ, HPLC and ESI-MS analysis of products; assay type: biochemical, Streptomyces cattleya; conditions: 1 mM substrate, 0.2 mg/mL ThnQ, 25 mM MOPS pH 7.0, ferrous ammonium sulfate, α-KG, ascorbate, room temperature 1 h
Description: as §1, with “5. […]” for “5.”
as §2, with “Decristoforo, G., Anal. Chim. Acta 163:25-33 (1984).” left out

SMILES	product(s) of the ThnG-catalyzed reaction (HPLC, ESI-MS) [1]	product(s) of the ThnQ-catalyzed reaction (HPLC, ESI-MS) [2]
CC(=O)NCCSC1=C(C(=O)O)N2C(=O)[C@H]([C@@H](C)O)[C@H]2C1 [compound 2, N-acetyl thienamycin]	N-acetyl dehydrothienamycin (3)	
CC[C@H]1C(=O)N2C(C(=O)O)=C(SCCNC(C)=O)C[C@H]12 [compound 5, PS-5]	identified as PS-7 (7) and PS-7 sulfoxide 9	stereospecifically hydroxylated PS-5 (5) to produce 2
CCC1C(=O)N2C(C(=O)O)=C(S/C=C/NC(C)=O)CC12 (stereo not drawn) [compound 7, PS-7]	able to convert 7 to its sulfoxide	N-acetyl dehydrothienamycin (3)
CCC1C(=O)N2C(C(=O)O)=C([S+]([O-])CCNC(C)=O)CC12 (stereo not drawn) [compound 8, PS-5 sulfoxide]	unable to catalyze desaturation	
